Experimental data as given in PubChem BioAssay AID1845203 (Molecular Pharmacology Branch, DTP, NCI, 2023).
Where “and” joins values, the source holds several entries; their conditions need not be identical. Identical values can stand only once.

System: G-401 tumor spheroids, viability % test/control
Experiment: Anticancer human tumor G-401 cell line growth inhibition;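 note: spheroids exposed to compound for 7 days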;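 for viability, T/C: 100% = DMSO vehicle-treated spheroids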
Conditions: spheroids with HUVEC and MSC; for viability, T/C: stronger effect = lower value
Procedure, shortened: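 Complex tumor spheroids combined malignant cells with endothelial cells and mesenchymal stem cells. DNA-damaging drugs and DNA repair inhibitors were tested alone and in combination, at half-log dilutions down from clinical Cmax (top 10 microM if Cmax unknown), 0.25% DMSO final.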

CC1COCCN1c1cc(-c2ccnn2C)c2ccnc(-c3ccn[nH]3)c2n1 (configuration not stated) + COc1cc2c(cc1O)CCNC21CSC2c3c(OC(C)=O)c(C)c4c(c3C(COC1=O)N1C(O)C3Cc5cc(C)c(OC)c(O)c5C(C21)N3C)OCO4
IC50 (curve of first compound, second compound 30 pM): 39.6 nM
IC50 (curve of first compound, second compound 94.9 pM): < 31.6 nM
IC50 (curve of first compound, second compound 0.0003 µM): < 31.6 nM
IC50 (curve of first compound, second compound 0.000949 µM): < 31.6 nM
IC50 (curve of first compound, second compound 0.003 µM): < 31.6 nM
viability, T/C (second compound 30 pM, first compound 0.0316 µM): 57.3%
viability, T/C (second compound 30 pM, first compound 0.1 µM): 22.1%
viability, T/C (second compound 30 pM, first compound 0.316 µM): 12.5%
viability, T/C (second compound 30 pM, first compound 1 µM): 12.3%
viability, T/C (second compound 30 pM, first compound 3.16 µM): 14.6%
viability, T/C (second compound 30 pM, first compound 10 µM): 16.3%
viability, T/C (second compound 94.9 pM, first compound 0.0316 µM): 32%
viability, T/C (second compound 94.9 pM, first compound 0.1 µM): 16.9%
viability, T/C (second compound 94.9 pM, first compound 0.316 µM): 10.8%
viability, T/C (second compound 94.9 pM, first compound 1 µM): 11.2%
viability, T/C (second compound 94.9 pM, first compound 3.16 µM): 12.9%
viability, T/C (second compound 94.9 pM, first compound 10 µM): 15.8%
viability, T/C (second compound 0.0003 µM, first compound 0.0316 µM): 13.1%
viability, T/C (second compound 0.0003 µM, first compound 0.1 µM): 10.8%
viability, T/C (second compound 0.0003 µM, first compound 0.316 µM): 9.87%
viability, T/C (second compound 0.0003 µM, first compound 1 µM): 9.44%
viability, T/C (second compound 0.0003 µM, first compound 3.16 µM): 11%
viability, T/C (second compound 0.0003 µM, first compound 10 µM): 14%
viability, T/C (second compound 0.000949 µM, first compound 0.0316 µM): 7.87%
viability, T/C (second compound 0.000949 µM, first compound 0.1 µM): 7.07%
viability, T/C (second compound 0.000949 µM, first compound 0.316 µM): 6.97%
viability, T/C (second compound 0.000949 µM, first compound 1 µM): 4.82%
viability, T/C (second compound 0.000949 µM, first compound 3.16 µM): 3.79%
viability, T/C (second compound 0.000949 µM, first compound 10 µM): 1.07%
viability, T/C (second compound 0.003 µM, first compound 0.0316 µM): 0.15%
viability, T/C (second compound 0.003 µM, first compound 0.1 µM): 0.14%
viability, T/C (second compound 0.003 µM, first compound 0.316 µM): 0.12%
viability, T/C (second compound 0.003 µM, first compound 1 µM): 0.11%
viability, T/C (second compound 0.003 µM, first compound 3.16 µM): 0.11%
viability, T/C (second compound 0.003 µM, first compound 10 µM): 0.17%

COc1cc(C)[nH]c(=O)c1CN1CCc2c(Cl)cc(C(OC)C3COC3)c(Cl)c2C1=O (configuration not stated)
viability, T/C (compound 0.0316 µM): 76.2% and 80.4% and 95.5%
viability, T/C (compound 0.1 µM): 52.4% and 56.5% and 66.3%
viability, T/C (compound 0.316 µM): 35.7% and 33.3% and 42.5%
viability, T/C (compound 1 µM): 30.3% and 28.9% and 35.6%
viability, T/C (compound 3.16 µM): 28% and 18.8% and 33.9%
viability, T/C (compound 10 µM): 26.9% and 19% and 31.9%
IC50 (curve of compound): 118 nM and 138 nM and 223 nM
